Laboratory results as given in patent US20080063628A1, “METHODS TO PROMOTE CELL DIFFERENTIATION” (priority 2006, published 2008).

Test system: second amniotic fluid-derived cell line
Assay: Two high dose trichostatin A treatments (first 48 h), gene expression by RT-PCR (Example 9);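 as to Gata-1 RT-PCR detection cycle: lower cycle number means higher gene expression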;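 as to HNF-3 beta RT-PCR detection cycle: lower cycle number means higher gene expression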
Assay type: cell-based, human
Settings: for Gata1 gene expression / HNF-3 beta gene expression / Insulin gene expression / Pdx-1 gene expression / sox17 gene expression: 1.25 μM 0-48 h + 96-120 h
Procedure: Several cell lines obtained from different amniotic fluid specimens (see Example 14) and pancreas donors (see Example 13) were tested with similar results. Two lines at similar passage number but derived from different amniotic fluid specimens are shown in Table VIII-A and Table VIII-B for this example. One of these cell lines was also used in examples 2 and 4 above. In addition, this example also contains comparison data in Table VIII-C and Table VIII-D for a single pancreatic-derived stromal line grown to early and late passage number.
Amniotic fluid derived cells or pancreatic-derived stromal cells were seeded into 24-well tissue culture plates at a density of 5000/cm^2 and cultured in AMNIOMAX (Invitrogen) or DMEM with 10% FBS respectively under standard cell culture conditions until confluent. After reaching confluence, amniotic fluid derived cells were treated at time 0 hours with a dose of 1.25 μM trichostatin A, and pancreatic-derived stromal cells were treated with a dose of 5.0 μM trichostatin A solubilized in DMSO and medium. At time 48 hours, cell cultures underwent a complete medium change to remove all traces of trichostatin A. At time 96 hours, cell cultures were re-fed with fresh medium and received a second dose of trichostatin A at the same concentration as used previously. At time 120 hours, cell cultures again underwent a complete medium change and were cultured for an additional 24 hours or […] total incubation time. Samples were taken for RT-PCR at the times indicated in Table IX-A to D. RNA samples were obtained daily from the start of the experiment. Culture medium was removed, and cells were washed with PBS then collected in RLT with β-mercaptoethanol (Qiagen). RNA was purified using the RNeasy Mini Kit (Qiagen) and RNA quantity and quality was determined using a spectrophotometer. cDNA was made using the iScript cDNA synthesis kit (BioRad). Human pancreas cDNA was included as a control. Results were normalized against GAPDH expression levels.
Gene expression levels of Sox17, HNF-3 beta, Pdx-1, insulin, and glucagon were analyzed in amniotic-derived cells, while expression levels of glucagon, insulin, HNF-3 beta, and Pdx-1 were analyzed in pancreas-derived cells. Samples of 20 ng cDNA was used in each Real-Time PCR reaction. RT-PCR was performed on the Applied Biosystems 7500, according to the methods described in Example 15. The data were analyzed using the accompanying software.
Real-time PCR amplifcation and quantitative analysis. Unless otherwise stated, all reagents were purchased from Applied Biosystems. Real-time PCR reactions were performed using the ABI PRISM™ 7500 Sequence Detection System. TAQMAN™ FAST UNIVERSAL PCR MASTER MIX™ (ABI, CA) was used with 20 ng of reverse transcribed RNA in a total reaction volume of 20 μl. Each cDNA sample was run in duplicate to allow correction of pipetting errors. Primers and FAM-labeled TAQMAN™ probes were used at concentrations of 200 nM. The level of expression for each target gene was normalized using the pre-developed Applied Biosystem's human glyceraldehyde-3-phosphate dehydrogenase (GAPDH) endogenous control kit. Primers and probes were designed using either ABI PRISM PRIMER EXPRESS™ software or a pre-developed ABI gene analysis kit. For each gene, either one of the primers or the probe were designed to be exon-boundary spanning. This eliminated the possibility of the primers/probe binding to any genomic DNA present. The primer and probe sets are listed as follows: Pdx-1 (Hs00426216), Insulin (Hs00355773), glucagon (Hs00174967), and FoxA2 (HNF 3-beta) (Hs00232764). The remaining primers were designed using the PRIMERS program (ABI, CA). After an initial 95° C. incubation for 20 sec, samples were cycled 40 times in two stages: a denaturation step at 95° C. for 3 sec, followed by an annealing/extension step at 60° C. for 30 sec. […]

[1] = 1.25 μM, following the second treatment

SMILES: CC(/C=C/C(=O)NO)=C\[C@@H](C)C(=O)c1ccc(N(C)C)cc1 [trichostatin A]
- Gata1 gene expression (24 hrs): + (detectable between 35 and 40 cycles by RT-PCR)
- HNF-3 beta gene expression (24 hrs): +++ (detectable at less than 35 cycles by RT-PCR with SE less than 0.9)
- Insulin gene expression (24 hrs): nd (not detectable at >40 cycles by RT-PCR)
- Pdx-1 gene expression (24 hrs): ++ (detectable at less than 35 cycles by RT-PCR with SE greater than 0.9)
- sox17 gene expression (24 hrs): +++ (detectable at less than 35 cycles by RT-PCR with SE less than 0.9)
- Gata1 gene expression (48 hrs): nd (not detectable at >40 cycles by RT-PCR)
- HNF-3 beta gene expression (48 hrs): +++ (detectable at less than 35 cycles by RT-PCR with SE less than 0.9)
- Insulin gene expression (48 hrs): nd (not detectable at >40 cycles by RT-PCR)
- Pdx-1 gene expression (48 hrs): + (detectable between 35 and 40 cycles by RT-PCR)
- sox17 gene expression (48 hrs): +++ (detectable at less than 35 cycles by RT-PCR with SE less than 0.9)
- Gata1 gene expression (72 hrs): nd (not detectable at >40 cycles by RT-PCR)
- HNF-3 beta gene expression (72 hrs): +++ (detectable at less than 35 cycles by RT-PCR with SE less than 0.9)
- Insulin gene expression (72 hrs): nd (not detectable at >40 cycles by RT-PCR)
- Pdx-1 gene expression (72 hrs): nd (not detectable at >40 cycles by RT-PCR)
- sox17 gene expression (72 hrs): +++ (detectable at less than 35 cycles by RT-PCR with SE less than 0.9)
- Gata1 gene expression (96 hrs): nd (not detectable at >40 cycles by RT-PCR)
- HNF-3 beta gene expression (96 hrs): + (detectable between 35 and 40 cycles by RT-PCR)
- Insulin gene expression (96 hrs): nd (not detectable at >40 cycles by RT-PCR)
- Pdx-1 gene expression (96 hrs): nd (not detectable at >40 cycles by RT-PCR)
- sox17 gene expression (96 hrs): +++ (detectable at less than 35 cycles by RT-PCR with SE less than 0.9)
- Gata1 gene expression (120 hrs): + (detectable between 35 and 40 cycles by RT-PCR)
- HNF-3 beta gene expression (120 hrs): +++ (detectable at less than 35 cycles by RT-PCR with SE less than 0.9)
- Insulin gene expression (120 hrs): nd (not detectable at >40 cycles by RT-PCR)
- Pdx-1 gene expression (120 hrs): +++ (detectable at less than 35 cycles by RT-PCR with SE less than 0.9)
- sox17 gene expression (120 hrs): +++ (detectable at less than 35 cycles by RT-PCR with SE less than 0.9)
- HNF-3 beta RT-PCR detection cycle (1.25 μM, by 96 hours): 37 cycles
- HNF-3 beta RT-PCR detection cycle (1.25 μM, first 72 hours): 34 cycles
- Pdx-1 RT-PCR detection cycle (1.25 μM, following the initial 48-hour treatment): 35 cycles
- Gata-1 RT-PCR detection cycle [1]: 38 cycles
- HNF-3 beta RT-PCR detection cycle [1]: 33 cycles
- Pdx-1 RT-PCR detection cycle [1]: 34 cycles
